From publication PMC9939733 (The Journal of Biological Chemistry, 2023) come the findings set out here.

Positions count from the first letter of the chain named. Some results are limits rather than exact numbers.

Holding throughout (type): biochemical
Experiment [1] concerns the target T1, R140Q IDH2 (Homo sapiens, UniProt P48735, R140Q).
T1 construct: made in house; host or cells: Sf21 insect cells (cell pellets prepared at Evotec)
T1 sequence (P48735 40-452 R140Q): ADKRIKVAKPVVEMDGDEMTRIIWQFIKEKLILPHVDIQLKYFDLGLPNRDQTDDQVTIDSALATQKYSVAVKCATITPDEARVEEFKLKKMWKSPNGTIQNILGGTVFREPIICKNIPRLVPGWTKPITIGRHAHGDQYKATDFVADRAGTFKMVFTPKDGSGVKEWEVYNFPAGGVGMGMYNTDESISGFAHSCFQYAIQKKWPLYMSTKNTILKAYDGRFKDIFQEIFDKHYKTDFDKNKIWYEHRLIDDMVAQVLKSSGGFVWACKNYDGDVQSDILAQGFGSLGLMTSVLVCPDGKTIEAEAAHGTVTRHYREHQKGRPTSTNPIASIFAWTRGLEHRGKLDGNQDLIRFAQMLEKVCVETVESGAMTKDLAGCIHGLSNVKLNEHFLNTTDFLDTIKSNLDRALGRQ
Briefly: Absorbance assay (NADPH consumption), substrate turnover in the absence of 2OG. The protocol:
(§1) Compounds were dispensed using a CyBio SDW-CW CyBi-Well Simultaneous Pipettor and assay started using a ThermoFisher Multidrop Combi reagent dispenser.
(§2) Reactions were performed as technical quadruplicates.

Experiment [2] addresses T2, R172K IDH2 (Homo sapiens, UniProt P48735, R172K).
T2 construct: made in house; host or cells: Sf21 insect cells (cell pellets prepared at Evotec)
T2 sequence (P48735 40-452 R172K): T1 sequence (P48735 40-452 R140Q) with Q101R, R133K
The description is as above. The method, then: as §1, §2

Experiment [3] addresses T1, R140Q IDH2. Briefly: Absorbance assay, variant activity in the presence of equimolar 2OG (inhibition screen). The protocol:
as §1, §2

The target of experiment [4] is T2, R172K IDH2. The experiment is described as above. The protocol:
as §1, §2

Experiment [5] has as its target T3, WT IDH1 (Homo sapiens, UniProt O75874).
T3 construct: made in house; host or cells: Escherichia coli BL21(DE3) pLyS
Briefly: Absorbance assay, WT activity in the presence of equimolar DL-isocitrate (inhibition). The method, then: as §1, §2

For experiment [6], the target named is T4, R132H IDH1 (Homo sapiens, UniProt O75874, R132H). Briefly: Absorbance assay (NADPH consumption), substrate turnover in the absence of 2OG. More on the design: made in house; host or cells: Escherichia coli BL21(DE3) pLyS. The protocol:
as §1, §2

The target of experiment [7] is T4, R132H IDH1. As to the kind of experiment: Absorbance assay, variant activity in the presence of equimolar 2OG (inhibition screen). On the set-up: made in house; host or cells: Escherichia coli BL21(DE3) pLyS. The method, then: as §1, §2
Experiment [8] deals with T5, WT IDH2 (Homo sapiens, UniProt P48735).
T5 construct: made in house; host or cells: Sf21 insect cells (cell pellets prepared at Evotec)
T5 sequence (P48735 40-452): T1 sequence (P48735 40-452 R140Q) with Q101R
Briefly: Absorbance assay, WT activity in the presence of equimolar DL-isocitrate (inhibition). The note with it: […] isocitrate and […] test compound, 75 μM NADP+, 2.0 nM WT IDH2. The protocol:
as §1, §2

The target of experiment [9] is T3, WT IDH1. Briefly: Absorbance assay, substrate activity in the absence of DL-isocitrate. The note with it: no DL-isocitrate; […] test compound, 75 μM NADP+, 2.0 nM WT IDH1; compared to DL-isocitrate. The protocol: as §1, §2
The target of experiment [10] is T5, WT IDH2. The experiment is described as above. Conditions: no DL-isocitrate; […] test compound, 75 μM NADP+, 2.0 nM WT IDH2; compared to DL-isocitrate. The method, then: as §1, §2
Where [11] appears, read: no 2OG, 6.0 mM test compound, 0.03 μM R140Q IDH2, 50 μM NADPH, 2OG = 100.
Setting [12] is: no 2OG, 1.0 mM test compound, 0.03 μM R172K IDH2, 50 μM NADPH, 2OG = 100.
Setting [13] is: 6.0 mM 2OG and 6.0 mM test compound, 0.03 μM R140Q IDH2, 50 μM NADPH.
Where [14] appears, read: 1.0 mM 2OG and 1.0 mM test compound, 0.03 μM R172K IDH2, 50 μM NADPH.
The mark [15] stands for this setting: […] isocitrate and […] test compound, 75 μM NADP+, 2.0 nM WT IDH1.
Setting [16] is: no 2OG, […] test compound, 0.03 μM R132H IDH1, 50 μM NADPH, 2OG = 100.
Setting [17] is: […] 2OG and […] test compound, 0.03 μM R132H IDH1, 50 μM NADPH.

T3 sequence (O75874 whole entry): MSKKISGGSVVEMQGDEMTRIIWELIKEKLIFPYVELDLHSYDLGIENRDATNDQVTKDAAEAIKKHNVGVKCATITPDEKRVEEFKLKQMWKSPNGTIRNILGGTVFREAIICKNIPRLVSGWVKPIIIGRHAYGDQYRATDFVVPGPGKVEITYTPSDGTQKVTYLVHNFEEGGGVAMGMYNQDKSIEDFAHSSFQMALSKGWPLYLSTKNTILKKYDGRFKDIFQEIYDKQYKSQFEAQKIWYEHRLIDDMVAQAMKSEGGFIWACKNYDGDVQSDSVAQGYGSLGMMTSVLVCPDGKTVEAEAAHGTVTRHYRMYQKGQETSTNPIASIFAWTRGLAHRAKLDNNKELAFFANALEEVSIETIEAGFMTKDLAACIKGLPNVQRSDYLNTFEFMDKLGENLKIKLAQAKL
T4 sequence (O75874 whole entry R132H): as the sequence (O75874 whole entry) above, with R132H counted along it

Turning to `NC(CCC(=O)O)C(=O)O` (racemic) [DL-glutamic acid], the “activity [%] (%-substrate conversion after 20 min incubation)” value (shortened to “activity [%]”) in [1] (setting [11]) is listed as less than 10%; in [2] (setting [12]), less than 10%; in experiment [3] (setting [13]) it was 94 ± 9%; in experiment [4] (setting [14]), 93 ± 5%; in experiment [5] (setting [15]), 94 ± 7%; in experiment [6] (setting [16]), less than 10%. Besides, in [7] (setting [17]), the “activity [%]” value amounted to 83 ± 5%.
In the case of `O=C(O)CC(C(=O)O)C(O)C(=O)O` (racemic) [DL-isocitric acid], the “activity [%]” value in experiment [1] is less than 10%; in [2], less than 10%; in experiment [3], 64 ± 3%; in [4] it was 71 ± 5%; in [6], less than 10%; in experiment [7] it was 78 ± 5%.
On to `CC(C)(C)CCC(CC(=O)C(=O)O)C(=O)O` (racemic) [compound 17], for which the “activity [%]” value in experiment [3] (setting [13]) is listed as 119 ± 5%; in experiment [4] (setting [14]), 93 ± 3%; in experiment [5] (setting [15]), 95±7%; in experiment [8], 100±2%; in [9], less than 10%; in experiment [10], less than 10%. Also, the “activity [%]” value in experiment [7] (setting [17]) stood at 93 ± 3%.
As to `O=C(O)C(=O)CC(CCCc1ccccc1)C(=O)O` (racemic) [compound 18], the “activity [%]” value was 101 ± 3% in experiment [3] (setting [13]); 74 ± 12% in experiment [4] (setting [14]); 101±3% in experiment [5] (setting [15]); 100±1% in [8]; less than 10% in experiment [9]; less than 10% in experiment [10]. Further, in experiment [7] (setting [17]), the “activity [%]” value amounted to 82 ± 3%.
`O=C(O)C(=O)CC(Cc1ccccc1)C(=O)O` (racemic) [compound 19]: the “activity [%]” value is given as 106 ± 4% in [3] (setting [13]); 102 ± 5% in [4] (setting [14]); 98±2% in [5] (setting [15]); 97±3% in experiment [8]; less than 10% in experiment [9]; less than 10% in experiment [10]. Moreover, the “activity [%]” value in experiment [7] (setting [17]) was found to be 116 ± 17%.
`O=C(O)C(=O)CC(Cc1ccc2ccccc2c1)C(=O)O` (racemic) [compound 20]: the “activity [%]” value in experiment [3] (setting [13]) is 73 ± 4%; in [4] (setting [14]) it was 51 ± 1%; in [5] (setting [15]), 97±3%; in experiment [8], 97±4%; in [9] it was less than 10%; in experiment [10], less than 10%. The “activity [%]” value in experiment [7] (setting [17]) amounted to 31 ± 2%.
For `O=C(O)CCCC(=O)C(=O)O` [2-oxoadipic acid], the “activity [%]” value is less than 10% in experiment [1] (setting [11]); less than 10% in [2] (setting [12]); 94 ± 8% in experiment [3] (setting [13]); 96 ± 18% in experiment [4] (setting [14]); 108 ± 8% in experiment [5] (setting [15]); less than 10% in experiment [6] (setting [16]). Besides, the “activity [%]” value in experiment [7] (setting [17]) stood at 115 ± 8%.
For `O=C(O)CC(=O)CC(=O)O` [3-oxoglutaric acid], the “activity [%]” value was less than 10% in [1] (setting [11]); less than 10% in experiment [2] (setting [12]); 109 ± 3% in [3] (setting [13]); 100 ± 4% in experiment [4] (setting [14]); 103 ± 3% in experiment [5] (setting [15]); less than 10% in [6] (setting [16]). In addition, the “activity [%]” value in experiment [7] (setting [17]) was 95 ± 2%.
Take `O=C[C@H](O)[C@@H](O)[C@H](O)[C@H](O)C(=O)O` [D-glucuronic acid]: the “activity [%]” value in experiment [1] (setting [11]) is recorded as less than 10%; in experiment [2] (setting [12]), less than 10%; in [3] (setting [13]) it was 112 ± 7%; in experiment [4] (setting [14]), 101 ± 2%; in experiment [5] (setting [15]) it was 106 ± 2%; in experiment [6] (setting [16]) it was less than 10%. In [7] (setting [17]), the “activity [%]” value was 104 ± 4%.
For the compound `O=C(O)/C=C(/CC(=O)O)C(=O)O` [cis-aconitic acid], the “activity [%]” value in experiment [1] is listed as less than 10%; in [2], less than 10%; in experiment [3] it was 119 ± 12%; in experiment [4], 99 ± 7%; in experiment [5] it was 101 ± 2%; in [6], less than 10%. The “activity [%]” value in experiment [7] came to 100 ± 2%.
With `O=C(O)C(=O)Cc1c[nH]c2ccccc12` [indole-3-pyruvic acid], the “activity [%]” value is less than 10% in experiment [2] (setting [12]); 87 ± 10% in [4] (setting [14]); 88 ± 2% in experiment [5] (setting [15]); 89 ± 1% in [8]; less than 10% in experiment [6] (setting [16]); 81 ± 6% in experiment [7] (setting [17]).
